Measurements: patent publication US20240190890A1, “MK2 INHIBITORS AND USES THEREOF” (Bristol-Myers Squibb Company, priority 2022, published 2024)

The compounds below were run against p38a activated, mitogen-activated protein kinase-activated protein kinase 2 (MAPKAP-K2 or MK2) enzyme (Homo sapiens (Human), UniProt P49137) (assay: MK2 Omnia continuous-read kinase assay for compound potency). Details: [MK-2]=0.4 nM, [ATP]=10 μM, [ST3-Sox]=10 μM; room temperature.
Type: biochemical
Method in brief: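 p38a-activated MK2 (0.4 nM) with 10 μM ATP (apparent Km) and 10 μM S/T3-Sox peptide in Tris pH 7.5 buffer with MgCl2, EGTA and DTT. Fluorescence (ex360/em485) read continuously for 120 min at room temperature. IC50 from initial linear slopes; apparent kinact/KI from kobs of exponential progress-curve fits.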

Sequence of p38a activated, mitogen-activated protein kinase-activated protein kinase 2 (MAPKAP-K2 or MK2) enzyme (P49137 whole entry): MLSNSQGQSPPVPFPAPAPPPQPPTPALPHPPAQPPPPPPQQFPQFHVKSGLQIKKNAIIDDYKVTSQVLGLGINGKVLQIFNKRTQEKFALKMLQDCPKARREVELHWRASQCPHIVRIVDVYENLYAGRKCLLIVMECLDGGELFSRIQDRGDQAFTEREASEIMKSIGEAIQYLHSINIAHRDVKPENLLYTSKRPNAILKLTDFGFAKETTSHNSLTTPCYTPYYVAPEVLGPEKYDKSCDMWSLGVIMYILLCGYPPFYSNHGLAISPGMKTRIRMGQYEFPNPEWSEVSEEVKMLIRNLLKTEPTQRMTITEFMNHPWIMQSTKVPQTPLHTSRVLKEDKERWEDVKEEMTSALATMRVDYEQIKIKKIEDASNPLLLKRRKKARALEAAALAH

| SMILES | IC50 [nM] |
| --- | --- |
| C=Cc1cc(-c2ccc3c(ccc4sc5c(c43)NC[C@@H](C)NC5=O)n2)c(COCC)cn1 [Example I-262, (R)-3-(5-(ethoxymethyl)-2-vinylpyridin-4-yl)-10-methyl-9,10,11,12-tetrahydro-8H-[1,4]diazepino[5′,6′:4,5]thieno[3,2-f]quinolin-8-one] | 35 |
| C#Cc1cc(-c2ccc3c(ccc4sc5c(c43)NC[C@@H](C)NC5=O)n2)cc(C)n1 [Example I-112, (R)-3-(2-ethynyl-6-methylpyridin-4-yl)-10-methyl-9,10,11,12-tetrahydro-8H-[1,4]diazepino[5′,6′:4,5]thieno[3,2-f]quinolin-8-one] | 152 |
| [2H]C([2H])([2H])N1CCN(c2cc(-c3ccc4c(ccc5sc6c(c54)NC[C@@H](C)NC6=O)n3)cc(C#C)n2)CC1 [Example I-172, (R)-3-(2-ethynyl-6-(4-(methyl-d3)piperazin-1-yl)pyridin-4-yl)-10-methyl-9,10,11,12-tetrahydro-8H-[1,4]diazepino[5′,6′:4,5]thieno[3,2-f]quinolin-8-one] | 97 |
| C[C@@H]1CNc2c(sc3ccc4nc(-c5ccnc(Cl)c5)ccc4c23)C(=O)N1 [Example I-272, (R)-3-(2-chloropyridin-4-yl)-10-methyl-9,10,11,12-tetrahydro-8H-[1,4]diazepino[5′,6′:4,5]thieno[3,2-f]quinolin-8-one] | 68 |
| C=C(F)c1cc(-c2ccc3c(ccc4sc5c(c43)NC[C@@H](C)NC5=O)n2)ccn1 [Example I-108, (R)-3-(2-(1-fluorovinyl)pyridin-4-yl)-10-methyl-9,10,11,12-tetrahydro-8H-[1,4]diazepino[5′,6′:4,5]thieno[3,2-f]quinolin-8-one] | 122 |
| C=Cc1nscc1-c1ccc2c(ccc3sc4c(c32)NC[C@@H](C)NC4=O)n1 [Example I-228, (R)-10-methyl-3-(3-vinylisothiazol-4-yl)-9,10,11,12-tetrahydro-8H-[1,4]diazepino[5′,6′:4,5]thieno[3,2-f]quinolin-8-one] | 128 |
| C#Cc1nc2c(c(-c3ccc4c(ccc5sc6c(c54)NC[C@@H](C)NC6=O)n3)n1)CN(C)CC2 [Example I-193, (R)-3-(2-ethynyl-6-methyl-5,6,7,8-tetrahydropyrido[4,3-d]pyrimidin-4-yl)-10-methyl-9,10,11,12-tetrahydro-8H-[1,4]diazepino[5′,6′:4,5]thieno[3,2-f]quinolin-8-one] | 526 |
| C=Cc1cc(-c2ccc3c(ccc4sc5c(c43)NC[C@@H](C)NC5=O)n2)cc(CN2CCC(OC(F)(F)F)CC2)n1 [Example I-189, (R)-10-methyl-3-(2-((4-(trifluoromethoxy)piperidin-1-yl)methyl)-6-vinylpyridin-4-yl)-9,10,11,12-tetrahydro-8H-[1,4]diazepino[5′,6′:4,5]thieno[3,2-f]quinolin-8-one] | 206 |

These reach a lower IC50. Values come first.

| IC50 [nM] | SMILES |
| --- | --- |
| 24 | C=Cc1ncc(COC2COC2)c(-c2ccc3c(ccc4sc5c(c43)NC[C@@H](C)NC5=O)n2)n1 [Example I-21, (R)-10-methyl-3-(5-((oxetan-3-yloxy)methyl)-2-vinylpyrimidin-4-yl)-9,10,11,12-tetrahydro-8H-[1,4]diazepino[5′,6′:4,5]thieno[3,2-f]quinolin-8-one] |
| 18 | C=Cc1nc(C(=O)OCC)c(-c2ccc3c(ccc4sc5c(c43)NC[C@@H](C)NC5=O)n2)s1 [Example I-234, ethyl (R)-5-(10-methyl-8-oxo-9,10,11,12-tetrahydro-8H-[1,4]diazepino[5′,6′:4,5]thieno[3,2-f]quinolin-3-yl)-2-vinylthiazole-4-carboxylate] |
| 1 | C=Cc1nccn1-c1ccc2c(ccc3sc4c(c32)NC[C@@H](C)NC4=O)n1 [Example I-164, (R)-10-methyl-3-(2-vinyl-1H-imidazol-1-yl)-9,10,11,12-tetrahydro-8H-[1,4]diazepino[5′,6′:4,5]thieno[3,2-f]quinolin-8-one] |
